Test results as given in article PMC9132363 (Journal of Medicinal Chemistry, 2022).
Where a name gives a salt, the structure may show the parent alone. Read-outs that look alike come from different tables or passages of the source.

Legend:
[1] = tested on: NRF2; test: 3×ARE-LUC luciferase reporter assay; format: cell-based, human; settings: for fold induction at 20 µM / fold induction at 6 µM / fold induction at 60 µM: Homo sapiens, 16 h; for activation of the NRF2 reporter: in words, 6, 20 and 60 μM; for NRF2 induction, CD (concentration needed to double luciferase expression): 3×ARE-LUC
Description: Transient transfections of HEK293T cells were performed with the expression vectors for TK-Renilla (Promega, Madison, […]) and the expression vector ARE-LUC (Dr. J. Alam, Dept. of Molecular Genetics, Ochsner Clinic Foundation, New Orleans, LA). Cells were seeded on 24-well plates (75,000 cells per well), cultured for 16 h, and transfected using calcium phosphate. Eight hours after transfections, cells were treated with 3 different concentrations of the compounds (6, 20, and 60 μM). […] After 16 h, the cells were lysed and assayed with a dual-luciferase assay system (Promega) according to the manufacturer’s instructions. Relative light units were measured in a GloMax 96 microplate luminometer with dual injectors (Promega).

[2] = MTT viability assay; format: cell-based, human; settings: human, HEK293T cells, HEK293T, 16 h, read-out: Cell viability (MTT)
Description: (§1) HEK293T cells were plated in 24-well culture plates (75,000 cells/well) and incubated in a CO2 incubator. The next day, treatment was given according to the experimental requirement. Sixteen hours later, 50 μL of MTT solutions from the stock (5 mg/mL) was added, and cells were incubated in a CO2 incubator in the dark for 2 h. The medium was removed, and formazan crystals formed by the cells were dissolved using 500 μL of DMSO followed by transfer in 96-well plates. The absorbance was read at a 570 nm wavelength on a multiwell plate reader.[70]

[3] = DPPH radical scavenging assay; format: physicochemical; settings: for EC50: 80% MeOH, 30 min, 517 nm, read-out: Radical scavenging activity EC50 (DPPH method); for IC50: supplementary CSV
Description: The antioxidant activity was determined by the 2,2-diphenyl-1-picrylhydrazyl hydrate (DPPH) assay.[65]−[67] All the measurements were performed in an 80% MeOH solution, with the final reaction volume being 3 mL. A stock of DPPH solution in DMSO (10^–2 M) was prepared and stored at −20 °C, and the same procedure was performed with the antioxidant solution. Then, the DPPH stock solution was diluted to 2 mL with a final concentration of 150 μM (final volume of 3 mL and final concentration of 100 μM). The antioxidant stock was sequentially diluted to 1 mL at 3, 9, 30, 90, and 300 μM (final volume of 3 mL and final concentrations of 1, 3, 10, 30, and 100 μM). The mixture was incubated at room temperature for 30 min. Once this time had passed, the absorbance was measured in a spectrophotometer at 517 nm. Trolox, caffeic acid, and ferulic acid were used as a standard (1, 3, 10, 30, and 100 μM final concentrations). A blank using 80% MeOH solution instead of the corresponding antioxidant was used in each assay. Two independent measurements of each sample were performed. Data were processed using Origin software, and sigmoidal fitting according to the DoseResp function was performed to extrapolate the IC50 (μM) of each antioxidant.

[4] = target: ROCK-II (ROKa) (Rattus norvegicus, UniProt Q62868); test: ROCK inhibition studies (33P-ATP, Long S6 substrate peptide); format: biochemical; settings: for remaining activity at 10 µM: 0.5 h, supplementary CSV, read-out: ROCK2 activity @ 10microM; for IC50: Table 3, read-out: ROCK2 inhibition IC50; for ROCK2 inhibition potency compared with fasudil: in words
ROCK-II (ROKa), sequence (Q62868 2-543 limits assumed): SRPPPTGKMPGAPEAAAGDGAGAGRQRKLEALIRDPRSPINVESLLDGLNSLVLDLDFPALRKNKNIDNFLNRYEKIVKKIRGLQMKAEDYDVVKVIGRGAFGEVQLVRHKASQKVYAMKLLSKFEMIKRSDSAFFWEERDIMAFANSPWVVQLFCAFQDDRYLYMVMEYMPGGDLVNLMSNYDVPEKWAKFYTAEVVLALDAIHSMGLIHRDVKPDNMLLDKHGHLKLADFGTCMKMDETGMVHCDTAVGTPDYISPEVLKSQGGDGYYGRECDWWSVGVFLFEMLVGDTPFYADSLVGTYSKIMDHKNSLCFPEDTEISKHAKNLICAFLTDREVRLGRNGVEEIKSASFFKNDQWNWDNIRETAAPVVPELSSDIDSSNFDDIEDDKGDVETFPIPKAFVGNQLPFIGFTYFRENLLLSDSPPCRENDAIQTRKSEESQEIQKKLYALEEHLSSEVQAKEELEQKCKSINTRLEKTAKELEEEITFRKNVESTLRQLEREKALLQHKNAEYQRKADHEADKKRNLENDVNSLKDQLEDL
Description: ROCK-II (ROKa) (5–20 mU diluted in 50 mM Tris pH 7.5, 0.1 mM EGTA, 0.1% 2-mercaptoethanol, and 1 mg/mL BSA) was assayed against the Long S6 substrate peptide ([…]) in a final volume of 25.5 μL containing 50 mM Tris pH 7.5, 0.1 mM EGTA, 30 μM Long S6 substrate peptide, 10 mM magnesium acetate, and 0.02 mM [33P-g-ATP] (50–1000 cpm/pmol) and incubated for 30 min at room temperature. Assays were stopped by addition of 5 μL of 0.5 M (3%) orthophosphoric acid and then harvested onto P81 Unifilter plates with a wash buffer of 50 mM orthophosphoric acid.

[5] = tested on: HEK293T cells; test: MTT viability assay; format: cell-based, human; settings: 20 µM, Table S3
Description: as §1

[6] = 20 microM, supplementary CSV, read-out: NRF2 induction @ 20 microM (fold change)
[7] = HEK-293T, 20 µM, HEK293T, read-out: Luciferase assay response
[8] = HEK-293T, HEK293T, read-out: Luciferase assay response

| SMILES | EC50 [3] | remaining activity at 10 µM [4] | IC50 [4] | melting point | IC50 [3] | activation of the NRF2 reporter [1] | fold induction at 20 µM [1, 6] | fold induction at 20 µM [1, 7] | viability at 16 h, 20 µM [2] | viability at 16 h, 60 µM [2] | fold induction at 6 µM [1, 8] | fold induction at 60 µM [1, 8] | MTT (%) [5] | NRF2 induction, CD (concentration needed to double luciferase expression) ([1]; HEK293T) | ROCK2 inhibition potency compared with fasudil [4] |
| --- | --- | --- | --- | --- | --- | --- | --- | --- | --- | --- | --- | --- | --- | --- | --- |
| COC(=O)/C=C/C(=O)OC [DMF, dimethyl fumarate, reference compound] |  |  |  |  |  |  | 4.9 ± 0.35 | 4.9 ± 0.35 | 90.4 ± 6.96% | 92.21 ± 0.462% |  |  |  |  |  |
| COc1cc(/C=C/C(=O)O)ccc1O [ferulic acid, reference compound] | 22.8 µM |  |  |  |  |  |  |  |  |  |  |  |  |  |  |
| COc1cc(/C=C/C(=O)N2CCN(S(=O)(=O)c3cccc4cnccc34)CC2)ccc1O [Compound 1e, 3-(4-Hydroxy-3-methoxyphenyl)-1-(4-(isoquinolin-5-ylsulfonyl)piperazin-1-yl)prop-2-en-1-one] | 6.42 µM | 47 ± 15.1% | 2.33 µM | > 230 °C |  |  | 1.1 ± 0.16 | 1.1 ± 0.16 | 60.5 ± 2.73% | 55.9 ± 1.08% | 1.2 ± 0.11 | 1.2 ± 0.14 |  |  |  |
| Cc1c(C)c2c(c(C)c1O)CCC(C)(C(=O)O)O2 (centres unmarked) [Trolox, reference compound] |  |  |  |  | 12 ± 2.3 µM |  |  |  |  |  |  |  |  |  |  |
| COc1cc(CCC(=O)N2CCN(S(=O)(=O)c3cccc4cnccc34)CC2)ccc1O [Compound 1g, 3-(4-Hydroxy-3-methoxyphenyl)-1-(4-(isoquinolin-5-ylsulfonyl)piperazin-1-yl)propan-1-one] | 10.3 µM | 53 ± 8.8% | > 10 µM | 156 to 157 °C |  |  | 0.8 ± 0.04 | 0.8 ± 0.04 | 93.7 ± 2.2% | 87.5 ± 2.32% | 1 ± 0.01 | 1.5 ± 0.22 |  |  |  |
| O=C(CCc1ccc(O)c(O)c1)N1CCN(S(=O)(=O)c2cccc3cnccc23)CC1 [Compound 1c, 3-(3,4-Dihydroxyphenyl)-1-(4-(isoquinolin-5-ylsulfonyl)piperazin-1-yl)propan-1-one] | 10.1 µM | 32.6 ± 10.3% | 0.32 µM | 158 to 159 °C | 11.9 ± 3 µM | dose-dependent activation | 2.2 ± 0.09 | 2.2 ± 0.09 | 104 ± 1.2% | 104.8 ± 0.434% | 1.7 ± 0.09 | 5.8 ± 0.23 |  | 15 µM | potency similar to the reference compound |
| O=C(O)/C=C/c1ccc(O)c(O)c1 [caffeic acid, reference compound] | 12.1 µM |  |  |  |  |  |  |  |  |  |  |  |  |  |  |
| C[S+]([O-])CCCCN=C=S (centres unmarked) [SFN, sulforaphane, reference compound] |  |  |  |  |  |  |  |  |  |  | 4 ± 0.08 |  |  |  |  |

Further lines, with some results ahead:

| EC50 [3] | remaining activity at 10 µM [4] | IC50 [4] | melting point | IC50 [3] | activation of the NRF2 reporter [1] | SMILES | fold induction at 20 µM [1, 6] | fold induction at 20 µM [1, 7] | viability at 16 h, 20 µM [2] | viability at 16 h, 60 µM [2] | fold induction at 6 µM [1, 8] | fold induction at 60 µM [1, 8] | MTT (%) [5] | NRF2 induction, CD (concentration needed to double luciferase expression) ([1]; HEK293T) | ROCK2 inhibition potency compared with fasudil [4] |
| --- | --- | --- | --- | --- | --- | --- | --- | --- | --- | --- | --- | --- | --- | --- | --- |
|  |  |  |  |  | low activity | O=S(=O)(c1cccc2cnccc12)N1CCCNCC1 [fasudil, 5-((1,4-Diazepan-1-yl)sulfonyl)isoquinoline, reference compound] | 1 ± 0.06 | 1 ± 0.06 | 92.1 ± 3.71% | 83.43 ± 0.715% | 1.3 ± 0.21 | 2.9 ± 0.49 |  |  |  |
| 9.61 µM | 30.3 ± 7.4% | 2.61 µM |  |  |  | COc1cc(/C=C/C(=O)N2CCCN(S(=O)(=O)c3cccc4cnccc34)CC2)ccc1O [Compound 1f, 3-(4-Hydroxy-3-methoxyphenyl)-1-(4-(isoquinolin-5-ylsulfonyl)-1,4-diazepan-1-yl)prop-2-en-1-one] | 0.8 ± 0.02 | 0.8 ± 0.02 | 93.9 ± 2.27% | 77.9 ± 3.9% | 0.7 ± 0.06 | 1.2 ± 0.08 | < 20% |  |  |
| 10 µM | 7.8 ± 1% | 2.13 µM |  | 9.9 ± 1.4 µM | dose-dependent activation | O=C(/C=C/c1ccc(O)c(O)c1)N1CCCN(S(=O)(=O)c2cccc3cnccc23)CC1 [Compound 1b, 3-(3,4-Dihydroxyphenyl)-1-(4-(isoquinolin-5-ylsulfonyl)-1,4-diazepan-1-yl)prop-2-en-1-one] | 3.1 ± 0.04 | 3.1 ± 0.04 | 96.9 ± 1.13% | 84.7 ± 1.83% |  | 4.1 ± 0.06 |  | 12 µM |  |
| 9.93 µM | 13.7 ± 1% | 0.79 µM | 161 to 162 °C | 11.9 ± 4.9 µM |  | O=C(/C=C/c1ccc(O)c(O)c1)N1CCN(S(=O)(=O)c2cccc3cnccc23)CC1 [Compound 1a, 3-(3,4-Dihydroxyphenyl)-1-(4-(isoquinolin-5-ylsulfonyl)piperazin-1-yl)prop-2-en-1-one] | 0.8 ± 0.02 | 0.8 ± 0.02 | 90.9 ± 1.63% | 100.7 ± 0.999% | 0.7 ± 0.06 | 1.2 ± 0.08 | < 20% |  | potency similar to the reference compound |
| 12 µM | 27.4 ± 1.4% | 0.9 µM |  |  |  | COc1cc(CCC(=O)N2CCCN(S(=O)(=O)c3cccc4cnccc34)CC2)ccc1O [Compound 1h, 3-(4-Hydroxy-3-methoxyphenyl)-1-(4-(isoquinolin-5-ylsulfonyl)-1,4-diazepan-1-yl)propan-1-one] | 0.9 ± 0.02 | 0.9 ± 0.02 | 99.4 ± 1.78% | 88.2 ± 2.43% | 1.2 ± 0.09 | 1.2 ± 0.03 |  |  |  |
